Data reported in the supplement of paper PMC8837787.

System: Saccharomyces cerevisiae ABC16-Green Monster
Experiment: growth inhibition at single dose (up to 150 µM), below the 70% cut-off for dose-response; higher = more potent
Settings: 18 h; 30 °C; YPD
In short: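 Data are given as percent growth inhibition. Log-phase drug-sensitive S. cerevisiae ABC16-Green Monster cells (OD600 0.1–0.2, 200 µl per well in 96-well plates) were treated in biological duplicates with each library compound at a single 150 µM dose, with untreated cultures alongside, and OD600 was measured at 0 h and after 18 h at 30 °C. Compounds falling below 70% in both replicates were not taken to dose-response.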

| Compound | growth inhibition at single dose [%] |
| --- | --- |
| COc1cc(C2=NCCN2)ccc1-c1cn(-c2cccc(C3=NCCN3)c2)nn1 | < 70 |
| COc1cccc(C2(C)Nc3ccccc3-c3nc4ccccc4n32)c1 (stereo unspecified) | < 70 |
| COc1ccc(F)cc1CN(Cc1ccc(C(=O)NC2CC2)cc1)Cc1ccco1 | < 70 |
| Nc1nc2ccc(-c3cncc(Oc4ccc(F)cc4)c3)cc2[nH]1 | < 70 |
| CNc1snc(C)c1C(=O)N(C)Cc1ccccc1OC(F)(F)F | < 70 |
| COc1cc(C(=O)c2c(N)c(C#N)cn3c2nc2ccccc23)cc(OC)c1OC | < 70 |
| NCC(=O)N1CCn2c(nc(-c3ccccc3)c2Nc2ccc3c(c2)OCO3)C1 | < 70 |
| Clc1ccc(CCNc2cc(-c3ccccc3)nc3ncnn23)cc1 | < 70 |
| S=c1n(CN2CCN(c3ccccc3Cl)CC2)nc(-c2cccs2)n1Cc1ccccc1 | < 70 |
| COc1ccc(C(=O)NC(c2ccccc2Cl)c2cc(Cl)c3cccnc3c2O)cc1 (stereo unspecified) | < 70 |
| CCN(CC)CCNc1ncnc2c1[nH]c1ccc(Cl)cc12 | < 70 |
| CC(=O)NCCc1nc2ccccc2n1Cc1ccc(C(C)C)cc1 | < 70 |
| CN(Cc1c(F)cccc1Cl)C(=O)COc1ccc2[nH]c3ccccc3c(=O)c2c1 | < 70 |
| CCCCCCc1cc(O)c2c3c(c(=O)oc2c1)CCC(C)C3 (stereo unspecified) | < 70 |
| CCN1CCN(c2c(C(=O)c3ccccc3)cnc3cc(OC)c(OC)cc23)CC1 | < 70 |
| COc1ccc(C2N(C)c3ccccc3N2C)cc1 | < 70 |
| O=c1nc(-c2ccccn2)[nH]c2scc(-c3ccccc3)c12 | < 70 |
| O=C1Nc2ccc(Br)cc2C12NCCc1c2[nH]c2ccccc12 (stereo unspecified) | < 70 |
| Cc1ccc(NS(=O)(=O)c2ccc(C(=O)Nc3ncccc3O)cc2)cc1C | < 70 |
| CCN(CC)CCNc1ccnc2cc(Cl)ccc12 | < 70 |
| COc1ccc(N(CCc2cccc(C)n2)C(=O)C2CCCCC2)cc1 | < 70 |
| COc1ccc2c(c1)CCCC21NC(=O)N(Cc2cc(=O)n3cc(C)ccc3n2)C1=O (stereo unspecified) | < 70 |
| N#Cc1nc(Cc2cccc3ccccc23)oc1N1CCN(C(c2ccccc2)c2ccccc2)CC1 | < 70 |

| Compound | growth inhibition at single dose [%] |
| --- | --- |
| NC(=O)c1cc(-c2ccsc2)ccc1OCCOc1ccccc1 | < 70 |
| COC(=O)c1cccc2oc(-c3cccc(OC)c3NC(=O)c3cc(-c4ccccc4)on3)nc12 | < 70 |
| COC(=O)c1ccc(F)cc1NS(=O)(=O)c1cccc(-c2cnn(Cc3ccccc3)c2)c1 | < 70 |
| O=C(Nc1cccc2ccccc12)N1CCN(c2ncccc2C(F)(F)F)CC1 | < 70 |
| O=C(Nc1ccc(-c2nc3ccccc3[nH]2)cc1)C1CCC1 | < 70 |
| CCN(CC)S(=O)(=O)c1ccc(OC(C)C)c(NC(=O)C2=CN3CCS(=O)(=O)N=C3C=C2)c1 | < 70 |
| FC(F)(F)c1cccc(CNc2ncnc3sccc23)c1 | < 70 |
| FC(F)(F)c1nc(N2CCN(c3ccncc3)CC2)c2ccccc2n1 | < 70 |
| O=C(COc1ccc2[nH]c3ccccc3c(=O)c2c1)Nc1ccccc1Cc1ccccc1 | < 70 |
| CC(C)(C)C(=O)Nc1ccc(C(=O)Nc2cccc(-c3nc4ccccc4[nH]3)c2)cc1 | < 70 |
| O=C(Nc1ccc(Oc2ccc3ccccc3c2)cc1)c1ccccc1 | < 70 |
| Cc1cc(C)nc(SCC(=O)N2CCN(C(=O)c3ccco3)CC2)n1 | < 70 |
| CC(C)(C)c1ccc(O)c(CNC2CCCCC2)c1 | < 70 |
| Cc1ccc(NC(=O)Nc2cccc(Cl)c2)cc1F | < 70 |
| C=CCN(C(=O)c1[nH]c(C)c(C(C)=O)c1C)c1nc2c(s1)CCCC2 | < 70 |
| CCOC(=O)C1=CN(C)C=C(C(=O)OCC)C1c1cc(Br)c(OCC)c(OC)c1 | < 70 |
| C=CCn1c[n+](C2=C(NS(=O)(=O)c3ccc(C)cc3)C(=O)c3ccccc3C2=O)c2ccccc21 | < 70 |
| Cc1cc(-c2cc(C(=O)N3CCCN(C)c4nc5ccccc5nc43)c3c(C)noc3n2)c(C)s1 | < 70 |
| Cc1ccc(CN2CCC(C(=O)Nc3ccc(-c4cc5ccccc5[nH]4)cc3)CC2)o1 | < 70 |
| NS(=O)(=O)c1cncc(-c2ccc3nccc(-c4cn[nH]c4)c3n2)c1 | < 70 |
| CC(C)(C(=O)Nc1ccc(F)cc1)n1cc(-c2ccccc2F)cn1 | < 70 |
| CC(C)c1ccc2c(c1)/C(=N/NC(=O)c1ccccc1F)C(=O)N2 | < 70 |
| CCCCCCn1c(=N)n(CC(O)COc2cccc(C)c2)c2ccccc21 (stereo unspecified) | < 70 |

| Compound | growth inhibition at single dose [%] |
| --- | --- |
| COc1ccc(CC(=O)N2CCN(C)c3nc4ccccc4nc32)cc1F | < 70 |
| O=C(Nc1ccc(CN2CCOCC2)cc1)c1ccc(-c2cc(Cl)ccc2Cl)o1 | < 70 |
| CCc1ccc(C(=O)Nc2cccc(NC(=O)c3ccccc3C)c2)cc1 | < 70 |
| CCOc1ccc2nc(C)cc(Nc3ccc(Br)cc3)c2c1 | < 70 |
| CC1c2cccc(O)c2C(O)=C2C(=O)C3(O)C(O)=C(C(N)=O)C(=O)C(N(C)C)C3C(O)C21 (stereo unspecified) [Doxycycline] | < 70 |
| COc1cc(-c2nc(-c3ccc(Sc4ccccc4)cc3)c(-c3ccccc3)[nH]2)cc(OC)c1O | < 70 |
| CCCCn1nc(C)c(C(=O)Nc2nc3ccccc3[nH]2)c1Cl | < 70 |
| CC(=O)c1c(C)[nH]c(C(=O)Nc2ccc3ccccc3n2)c1C | < 70 |
| CN(Cc1ccccc1)S(=O)(=O)c1ccc(Cl)c(C(=O)Nc2nnc(C(F)(F)F)[nH]2)c1 | < 70 |
| Cc1[nH]c(-c2ccc(F)cc2)cc1C(=O)NC1CCN(Cc2ccccc2)CC1 | < 70 |
| COCCNC(=O)c1ccc(OC2CCN(Cc3ccc(F)c(F)c3)CC2)c(Cl)c1 | < 70 |
| COC(=O)c1ccc(C2C3=C(O)CC(c4ccc(F)cc4)CC3=Nc3ccccc3N2C(=O)c2ccccc2)cc1 (stereo unspecified) | < 70 |
| O=C(Nc1cccc2c[nH]nc12)c1cnc(OCC(F)(F)F)c(Cl)c1 | < 70 |
| COc1ccc(OC(C)C(=O)Nc2ccc(Cl)cc2C)cc1 (stereo unspecified) | < 70 |
| CCN(CC)c1cc(C)c2cc(NC(=O)c3cccc(OC)c3)ccc2n1 | < 70 |
| Nc1c2c(nc3sc4c(c13)CCCC4)CCCC2 | < 70 |
| CCOC(=O)c1cnc2ccc(OC)cc2c1Nc1ccc(N2CCN(C)CC2)cc1 | < 70 |
| CC(NCc1ccccc1)c1cc(Cl)ccc1O (stereo unspecified) | < 70 |
| COc1ccc(CN2CCN(Cc3ccccc3)CC2)c(O)c1 | < 70 |
| Cc1cc2ccccc2n1CC(=O)N1CC(C(=O)N2CCCCC2)Oc2ccccc21 (stereo unspecified) | < 70 |
| O=C1N=C(Nc2cccnc2)S/C1=C/c1ccc2ncccc2c1 | < 70 |
| CC(C)(C)c1ccc(C(=O)Nc2cc(F)ccc2F)s1 | < 70 |
| O=C(NC1CCN(c2nccc(C(F)(F)F)n2)CC1)c1cccs1 | < 70 |

| Compound | growth inhibition at single dose [%] |
| --- | --- |
| Cc1cccc2nc(C(=O)Nc3ccc4c(c3)nc3n4CCCCC3)cn12 | < 70 |
| CC(C)n1ncc2cc(C(=O)Nc3nc4c(s3)CCCC4)cnc21 | < 70 |
| COC(=O)c1cc(C(=O)OC)cc(-n2c(C)cc(C(=O)Cn3ncc(Cl)c(Cl)c3=O)c2C)c1 | < 70 |
| CNC(=O)c1ccc2n1CCN(C(=O)OCc1ccccc1)C2C (stereo unspecified) | < 70 |
| Cc1nc(-c2ccccn2)nc(NCCc2ccc(S(C)(=O)=O)cc2)c1Cl | < 70 |
| CC(C)(C)c1ccc(NC(=O)c2cnccn2)cc1 | < 70 |
| COc1ccc(/C=C2\N=C(SCC(=O)O)N(Cc3ccccc3)C2=O)cc1 | < 70 |
| Cc1cc(Cl)c(S(=O)(=O)N2CCCC2)cc1OCC(=O)NC1CCCCC1 | < 70 |
| O=C(Nc1ccc(F)c(Cl)c1)c1[nH]nc2ccccc12 | < 70 |
| COc1cc2cc(C(=O)Nc3ccccc3)c(N)nc2cc1OC | < 70 |
| Cc1cc(C2=NOC(c3cc(Cl)c(F)c(Cl)c3)(C(F)(F)F)C2)ccc1C(=O)NCc1ccc2c(c1)C(C)(C)OB2O (stereo unspecified) | < 70 |
| Cc1ccc(Sc2nc(-c3cccs3)ns2)cc1 | < 70 |
| COCc1[nH]n2c3cccc(=O)c-3nnc2c1-c1ccccc1 | < 70 |
| COC(=O)c1ccc(CNC(=O)NCCN2c3ccccc3CCC2C)cc1 (stereo unspecified) | < 70 |
| O=C(CN1C(=O)CSc2ccc(C(F)(F)F)cc21)Nc1ccc(Cl)cc1 | < 70 |
| O=C(NCC1Cc2cccc(-c3ccncc3)c2O1)c1csc2c1CCCC2 (stereo unspecified) | < 70 |
| COc1ccc(-n2ccnc2SCC(=O)Nc2cc(C)ccc2C)c(OC)c1 | < 70 |
| CCOC(=O)c1sc(N)c(C#N)c1COC(=O)c1c(CC)noc1C | < 70 |
| CC(C)(C)c1ccc(C(=O)Nc2ncccc2O)cc1 | < 70 |
| CCOC(=O)c1ccc2nc(-c3ccccc3)cc(O)c2c1 | < 70 |
| CC1=Nc2ccc(Cl)cc2C(O)(c2ccc(C)cc2)N1CCN1CCCCC1 (stereo unspecified) | < 70 |
| Cc1nc(-c2ccc(CCNc3ncnc4sccc34)cc2)cs1 | < 70 |
